This note sets out measurements from ChEMBL document CHEMBL1764947, “Symmetric double-headed aminopyridines, a novel strategy for potent and membrane-permeable inhibitors of neuronal nitric oxide synthase” (J Med Chem, 2011).

Assay [1] is described as follows: Selectivity ratio of Ki for bovine recombinant eNOS to Ki for rat recombinant nNOS.
A short description of assay [2]: Selectivity ratio of Ki for murine macrophage recombinant iNOS to Ki for rat recombinant nNOS.
For the next assay, the target named is Nitric oxide synthase 1 (Rattus norvegicus, UniProt P29476). Kind of assay: Inhibition of rat recombinant nNOS expressed in Escherichia coli by UV-vis spectrometric analysis.
Another assay addresses T1, Nitric oxide synthase 3 (Bos taurus, UniProt P29473).
T1 sequence (P29473 whole entry): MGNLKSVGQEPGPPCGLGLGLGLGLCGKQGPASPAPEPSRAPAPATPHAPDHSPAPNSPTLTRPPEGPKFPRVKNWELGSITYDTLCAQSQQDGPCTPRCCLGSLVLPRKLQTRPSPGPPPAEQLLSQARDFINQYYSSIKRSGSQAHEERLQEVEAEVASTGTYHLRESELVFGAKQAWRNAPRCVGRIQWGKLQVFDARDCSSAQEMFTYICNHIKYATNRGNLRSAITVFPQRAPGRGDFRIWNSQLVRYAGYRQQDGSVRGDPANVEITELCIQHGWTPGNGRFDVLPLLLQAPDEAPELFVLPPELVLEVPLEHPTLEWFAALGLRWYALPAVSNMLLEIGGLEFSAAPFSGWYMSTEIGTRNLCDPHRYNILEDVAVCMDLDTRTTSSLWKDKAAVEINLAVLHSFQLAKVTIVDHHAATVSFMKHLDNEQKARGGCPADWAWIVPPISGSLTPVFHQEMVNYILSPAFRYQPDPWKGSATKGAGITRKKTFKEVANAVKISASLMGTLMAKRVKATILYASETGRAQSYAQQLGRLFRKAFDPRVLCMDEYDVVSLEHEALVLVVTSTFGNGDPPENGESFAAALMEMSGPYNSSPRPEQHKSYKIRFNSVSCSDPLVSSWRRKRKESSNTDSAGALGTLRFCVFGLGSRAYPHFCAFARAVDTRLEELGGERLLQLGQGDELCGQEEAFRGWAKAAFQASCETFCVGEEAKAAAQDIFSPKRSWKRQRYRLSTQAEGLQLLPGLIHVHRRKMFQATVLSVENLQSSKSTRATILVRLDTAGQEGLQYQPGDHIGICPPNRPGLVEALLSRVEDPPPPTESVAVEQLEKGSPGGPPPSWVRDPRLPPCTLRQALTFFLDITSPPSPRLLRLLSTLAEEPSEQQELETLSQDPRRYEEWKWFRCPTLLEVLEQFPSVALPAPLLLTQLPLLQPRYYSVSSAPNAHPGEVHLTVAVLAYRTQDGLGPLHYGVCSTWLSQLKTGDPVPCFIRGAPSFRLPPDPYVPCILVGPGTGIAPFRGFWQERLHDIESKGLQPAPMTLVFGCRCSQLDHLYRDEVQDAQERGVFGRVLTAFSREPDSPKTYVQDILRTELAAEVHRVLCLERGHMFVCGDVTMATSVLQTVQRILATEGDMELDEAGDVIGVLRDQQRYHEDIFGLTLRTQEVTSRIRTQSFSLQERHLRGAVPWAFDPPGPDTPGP
As to the kind of experiment: Inhibition of bovine recombinant eNOS expressed in Escherichia coli by UV-vis spectrometric analysis.

Assay [3] addresses T2, Nitric oxide synthase, inducible (Mus musculus, UniProt P29477).
T2 sequence (P29477 whole entry): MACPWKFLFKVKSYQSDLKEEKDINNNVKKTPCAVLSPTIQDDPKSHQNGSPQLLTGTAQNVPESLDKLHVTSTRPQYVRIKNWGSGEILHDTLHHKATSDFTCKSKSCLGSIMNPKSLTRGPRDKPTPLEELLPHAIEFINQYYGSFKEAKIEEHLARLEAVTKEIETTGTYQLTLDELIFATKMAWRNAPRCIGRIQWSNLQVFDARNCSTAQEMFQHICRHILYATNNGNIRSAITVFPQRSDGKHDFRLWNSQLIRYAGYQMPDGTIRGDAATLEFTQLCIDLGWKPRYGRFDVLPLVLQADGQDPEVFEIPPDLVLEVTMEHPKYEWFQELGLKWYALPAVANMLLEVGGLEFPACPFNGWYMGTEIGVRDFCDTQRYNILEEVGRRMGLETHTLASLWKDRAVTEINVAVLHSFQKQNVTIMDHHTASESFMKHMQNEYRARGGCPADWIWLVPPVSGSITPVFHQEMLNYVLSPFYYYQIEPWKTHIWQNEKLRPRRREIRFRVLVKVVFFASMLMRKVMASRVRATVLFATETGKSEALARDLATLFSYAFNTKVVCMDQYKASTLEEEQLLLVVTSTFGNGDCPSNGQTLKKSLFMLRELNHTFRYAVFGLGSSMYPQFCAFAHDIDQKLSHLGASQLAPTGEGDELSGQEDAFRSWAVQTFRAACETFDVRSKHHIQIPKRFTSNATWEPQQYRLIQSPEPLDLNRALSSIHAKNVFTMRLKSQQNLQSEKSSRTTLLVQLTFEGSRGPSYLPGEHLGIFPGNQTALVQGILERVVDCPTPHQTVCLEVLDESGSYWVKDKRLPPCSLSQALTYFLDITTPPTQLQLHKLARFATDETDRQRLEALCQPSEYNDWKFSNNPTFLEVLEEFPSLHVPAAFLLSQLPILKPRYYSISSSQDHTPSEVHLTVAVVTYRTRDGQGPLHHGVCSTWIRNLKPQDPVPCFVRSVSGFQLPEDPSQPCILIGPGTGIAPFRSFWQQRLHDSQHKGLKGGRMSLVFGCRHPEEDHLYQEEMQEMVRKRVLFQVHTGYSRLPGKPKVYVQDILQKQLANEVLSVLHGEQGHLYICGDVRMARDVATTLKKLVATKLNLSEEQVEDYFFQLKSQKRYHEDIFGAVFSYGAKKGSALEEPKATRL
Kind of assay: Inhibition of mouse macrophage recombinant iNOS expressed in Escherichia coli by UV-vis spectrometric analysis.

Chain of Nitric oxide synthase 1 (P29476 whole entry): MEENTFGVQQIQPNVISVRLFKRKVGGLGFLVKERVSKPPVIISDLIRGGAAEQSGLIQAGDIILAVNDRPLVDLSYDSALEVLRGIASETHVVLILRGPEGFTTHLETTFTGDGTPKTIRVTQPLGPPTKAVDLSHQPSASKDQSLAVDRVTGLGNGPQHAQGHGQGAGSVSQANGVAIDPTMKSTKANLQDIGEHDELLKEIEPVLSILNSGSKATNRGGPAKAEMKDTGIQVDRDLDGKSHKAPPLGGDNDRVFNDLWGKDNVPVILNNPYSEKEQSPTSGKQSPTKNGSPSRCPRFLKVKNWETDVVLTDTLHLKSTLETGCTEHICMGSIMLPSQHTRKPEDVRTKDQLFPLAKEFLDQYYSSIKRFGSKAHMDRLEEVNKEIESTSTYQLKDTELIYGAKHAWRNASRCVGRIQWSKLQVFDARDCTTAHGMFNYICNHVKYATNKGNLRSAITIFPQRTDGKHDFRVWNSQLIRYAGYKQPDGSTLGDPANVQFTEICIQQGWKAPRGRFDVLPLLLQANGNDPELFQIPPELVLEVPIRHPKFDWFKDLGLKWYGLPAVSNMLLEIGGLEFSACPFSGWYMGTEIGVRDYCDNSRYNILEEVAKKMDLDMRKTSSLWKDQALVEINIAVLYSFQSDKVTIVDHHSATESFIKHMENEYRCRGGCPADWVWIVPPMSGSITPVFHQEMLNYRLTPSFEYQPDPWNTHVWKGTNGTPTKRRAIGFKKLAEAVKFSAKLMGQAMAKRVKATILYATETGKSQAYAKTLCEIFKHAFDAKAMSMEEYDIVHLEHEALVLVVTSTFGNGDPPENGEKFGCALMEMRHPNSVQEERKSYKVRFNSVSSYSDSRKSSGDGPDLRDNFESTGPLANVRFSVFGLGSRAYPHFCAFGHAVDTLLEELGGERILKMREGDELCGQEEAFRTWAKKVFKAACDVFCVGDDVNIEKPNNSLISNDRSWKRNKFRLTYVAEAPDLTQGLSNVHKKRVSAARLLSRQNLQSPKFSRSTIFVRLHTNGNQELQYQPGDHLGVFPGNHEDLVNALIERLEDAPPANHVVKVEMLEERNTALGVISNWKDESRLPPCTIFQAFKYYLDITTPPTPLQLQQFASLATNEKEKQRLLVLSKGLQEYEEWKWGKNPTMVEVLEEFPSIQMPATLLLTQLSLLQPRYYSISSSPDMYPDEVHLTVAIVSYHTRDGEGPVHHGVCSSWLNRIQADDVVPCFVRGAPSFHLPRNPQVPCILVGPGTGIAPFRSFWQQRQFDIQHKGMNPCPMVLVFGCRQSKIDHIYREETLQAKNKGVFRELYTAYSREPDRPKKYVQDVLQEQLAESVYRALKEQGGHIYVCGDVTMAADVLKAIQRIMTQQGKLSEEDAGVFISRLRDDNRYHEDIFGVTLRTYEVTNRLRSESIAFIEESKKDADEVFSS

`Cc1cc(N)nc(CCc2cncc(CCc3cc(C)nc(N)c3)c2)c1`: the Ratio Ki amounted to 156 in assay [1] and 19 in assay [2].

As to `Cc1cc(N)nc(CCc2ccc3ccc(CCc4cc(C)cc(N)n4)cc3c2)c1`, the Ratio Ki in assay [1] amounted to 14.9; in assay [2], 20.1.

In the case of `Cc1cc(N)nc(CCc2ccc(CCc3cc(C)cc(N)n3)cc2)c1`, the Ratio Ki in assay [1] turned out to be 24.6; in assay [2] it was 24.8.

Broadly, the Ki is a dissociation constant, usually derived from enzyme kinetics or from competition with a known ligand. Regarding `Cc1cc(N)nc(CCc2ccc3ccc(CCc4cc(C)nc(N)c4)cc3c2)c1`, the Ki at Nitric oxide synthase 1 was greater than 1 µM.

Turning to `Cc1cc(N)nc(CCc2cccc(CCc3cc(C)cc(N)n3)n2)c1`, the Ratio Ki was determined as 95 in assay [1] and 48 in assay [2].

As to `Cc1cc(N)nc(CCc2cc(N)cc(CCc3cc(C)cc(N)n3)c2)c1`, the results for the Ki (at Nitric oxide synthase 1; on Nitric oxide synthase 3; in assay [3]) were 0.085 µM, 4.95 µM and 3.4 µM, respectively. Also, the Ratio Ki in assay [1] stood at 58; in assay [2], 40.

As for `Cc1cc(CCc2cccc(CCc3cc(C)nc(N)c3)c2)cc(N)n1`, the Ki on Nitric oxide synthase 1 is greater than 1 µM.

For the molecule `Cc1cc(N)nc(CCc2ccc3cc(CCc4cc(C)cc(N)n4)ccc3c2)c1`, the Ratio Ki in assay [1] was found to be 7.22; in assay [2], 9.42.

As for `Cc1cc(N)nc(CCc2cccc(CCc3cc(C)nc(N)c3)n2)c1`, the values for the inhibition constant (Ki) (on Nitric oxide synthase 1; on Nitric oxide synthase 3; in assay [3]) were 0.195 µM, 20 µM and 12.6 µM, respectively.

Take `Cc1cc(N)nc(CCc2cccc(CCc3cc(C)nc(N)c3)c2)c1`: the values for the Ratio Ki in assay [1] and in assay [2] were 111 and 71.8, respectively.

As for `Cc1cc(C)nc(NCc2ccc3cc(CNc4cc(C)cc(C)n4)ccc3c2)c1`, the inhibition constant Ki on Nitric oxide synthase 1 was greater than 1 µM.
